Experimental data reported in US12391684B2, “Pharmaceutical formulations and methods for the treatment of gastrointestinal disorders” (Renexxion, LLC, priority 2018, dated 2025).
Where a name gives a salt, the structure may show the parent alone. Read-outs that look alike come from different tables or passages of the source.

Assays:
[1] = 12-month stability of the anhydrous form in stability chambers (HPLC purity, water content); assay type: physicochemical; conditions: 25° C./60% RH
Description: The dihydrochloride salt, anhydrous form of (3S, 4R, 3′R)-6-[4-(4-amino-5-chloro-2-methoxy-benzoylamino)-3-methoxy-piperidin-1-yl]-hexanoic acid 1-azabicyclo[2.2.2]oct-3′-yl ester, was placed in stability chambers with temperature and humidity controlled, for up to 12 months. The temperature was set at 25° C., and the relative humidity was set at 60%. The samples were assayed at time zero, then at 3, 6, 9, and 12 months using an HPLC method. The HPLC conditions were as follows: • Column: Inertsil C8-3, 250 mm length, 3 mm diameter, 5 μm particle size • Mobile Phase A: 2000 mL water+3 mL formic acid • Mobile Phase B: 1000 mL methanol+3 mL formic acid • Flow rate: 0.6 mL/min • Detection wavelength: 275 nm • Injection volume: 20 uL • Time: 50 minutes

[2] = Dehydration profile by thermographic analysis (TGA); assay type: physicochemical; conditions: dry nitrogen, 5° C./minute, 25° C. to 250° C.
Description: Thermographic analysis (TGA) curves were generated for the anhydrate and trihydrate using a Perkin Elmer TGA-7. Three to five milligram samples were weighed into aluminum sample pans and run under dry nitrogen at 5° C./minute from 25° C. to 250° C. The data were exported to Excel to enable plotting.

[3] = Stability of the trihydrate form stored in bulk in a GMP storage facility; assay type: physicochemical; conditions: room temperature, relative humidity >30%, up to 11 years
Description: The trihydrate form was evaluated for stability with regard to purity and strength over a time period of up to 11 years, by storing it in a GMP facility under controlled conditions of temperature and relative humidity (temperature=room temperature and relative humidity >30%).

[4] = for Resulting Form: Antisolvent Water, Ambient, stirred 3 weeks
Description: Noncompetitive Slurry Experiments for Polymorph Screening: Noncompetitive slurry experiments were performed as a supplemental polymorph screening method. When suspensions of a polymorphic material are prepared, any polymorphic form with a lower solubility (more thermodynamically stable form) can nucleate. The nucleated forms can convert all the residual solids to the nucleated form via solvent-mediated phase transition. Suspensions of the isolated Form I were prepared by adding excess solid to several different solvent systems. The suspensions were stirred vigorously at ambient temperature for 3 weeks. The remaining solids were collected by vacuum filtration and analyzed by powder X-ray diffraction to determine if any changes in the crystalline form of the solids occurred.

COc1cc(N)c(Cl)cc1C(=O)N[C@@H]1CCN(CCCCCC(=O)O[C@H]2CN3CCC2CC3)C[C@@H]1OC [(3S, 4R, 3′R)-6-[4-(4-amino-5-chloro-2-methoxy-benzoylamino)-3-methoxy-piperidin-1-yl]-hexanoic acid 1-azabicyclo[2.2.2]oct-3′-yl ester]
Purity HPLC (Area %) ([1]; 3 months): 99.2 Area % | Water Content ([1]; 3 months): 6.47% | Purity HPLC (Area %) ([1]; 6 months): 99.3 Area % | Water Content ([1]; 6 months): 8.47% | Water Content ([1]; 6 months, listed as Anhydrous Form of the Dihydrochloride Salt): 8.47% | Purity HPLC (Area %) ([1]; 9 months): 99.2 Area % | Water Content ([1]; 9 months): 8.20% | Purity HPLC (Area %) ([1]; 12 months): 99.3 Area % | Water Content ([1]; 12 months): 8.43% | Purity HPLC (Area %) ([1]; time 0 months): 99.3 Area % | Water Content ([1]; time 0 months): 0.45% | Water Content ([1]; time 0 months, listed as Anhydrous Form of the Dihydrochloride Salt): 0.45% | Decrease in strength of the active ingredient due to increase in water content ([1]; up to 12 months): approximately 8% | Purity of the compound versus specifications (Purity HPLC Area %) ([1]; up to 12 months): remained within the specifications | Dehydration mass loss (TGA) [2]: absent

COc1cc(N)c(Cl)cc1C(=O)N[C@@H]1CCN(CCCCCC(=O)O[C@H]2CN3CCC2CC3)C[C@@H]1OC [Compound 1, (3S, 4R, 3′R)-6-[4-(4-amino-5-chloro-2-methoxy-benzoylamino)-3-methoxy-piperidin-1-yl]-hexanoic acid 1-azabicyclo[2.2.2]oct-3′-yl ester di-hydrochloride salt]
Stability under GMP storage [3]: stable under GMP storage

COc1cc(N)c(Cl)cc1C(=O)N[C@@H]1CCN(CCCCCC(=O)O[C@H]2CN3CCC2CC3)C[C@@H]1OC [Form I, (3S, 4R, 3′R)-6-[4-(4-amino-5-chloro-2-methoxy-benzoylamino)-3-methoxy-piperidin-1-yl]-hexanoic acid 1-azabicyclo[2.2.2]oct-3′-yl ester]
Resulting Form ([4]; Solvent 1-Propanol): Form 1 | Resulting Form ([4]; Solvent Acetonitrile): Form 1 | Resulting Form ([4]; Solvent Ethanol): Form 1 | Resulting Form ([4]; Solvent Methanol): Form 1 | Resulting Form ([4]; Solvent Water): Form 1 | Thermodynamic stability among anhydrous forms ([4]; outcome of the slurry experiments): most thermodynamically stable anhydrous form
